Several values for one entry are separate records, joined by “and”; a condition that tells them apart may be missing. Identical values can stand only once. Like-named read-outs stand apart in the source and are kept apart here.

The Ki is a measure of affinity in units of concentration, obtained from inhibition or displacement.

Assay [1] has as its target elastase of P. aeruginosa (Pseudomonas aeruginosa, UniProt P14756). Conditions: background; known inhibitors effective at rather large concentrations; cited from earlier work.
For another assay, the target named is Pseudomonas elastase (Pseudomonas aeruginosa, UniProt P14756). Briefly: biochemical. On the procedure: Measurements were performed at 25° C. The reaction solutions (2.5 ml) ocnsisted of 0.1-0.2 mM substrate in 0.1M NaCl-0.05M Tris. HCl-0.01M CaCl2, pH 7.5; all were demetallized. The hydrolysis of substrate was first order and rates were determined from plots of (At -A) versus t (At and A represent absorbance at time t and after completion of the reaction, respectively). Inhibition constants (Ki) were derived from plots of ko /ki versus inhibitor concentration (ko and ki are the observed rate constants in absence and presence of inhibitors, respectively).
The inhibition characteristics of […] for Pseudomonas elastase, using furylacryloyl-Gly-Leu-Ala as the substrate, was determined. […] The Ki value for HS-Ac-Phe-Leu was 0.2 μM.

For assay [2], the target named is T1, Pseudomonas aeruginosa elastase (Pseudomonas aeruginosa, UniProt P14756). Nature of the assay: Protection of the cornea: pure elastase injected into rabbit cornea together with inhibitor. Format: in vivo. The following applies: rabbit eye, about 1 μg elastase injected with 0.2 μmole (70 μg) inhibitor. The method, then: 1. When about 1 μg of the pure elastase is injected into the cornea of a rabbit eye, the cornea "dissolves", swells and perforates within about an hour and a half from the time of the injection of the elastase. When the same amount of enzyme is injected in the presence of 0.2μ mole (70 μg) of the inhibitor mercaptoacetyl-L-phenylalanyl-L leucine, the dissolution effect is postponed to about 9 hours from the injection of the enzyme. […] The perforation of the cornea is prevented.

Assay [3] addresses T1, Pseudomonas aeruginosa elastase. Briefly: Protection of the cornea: topical inhibitor drops before and after elastase injection into rabbit cornea. Conditions: 10 mM solution. It is filed as in vivo. The text has this:
2. […] This series of experiments proves that the mercaptoacetyl dipeptide is an effective agent preventing damage to the eye caused by Pseudomonas aeruginosa elastase.

The subject of assay [4] is Pseudomonas aeruginosa. Briefly: Experimental model of Pseudomonas keratitis in rabbit eyes, antibiotic plus inhibitor versus antibiotic alone. Format: in vivo. The following applies: 10 mM inhibitor drops combined with 0.3% gentamicin sulfate. The method, then:
3. The efficacy of combined treatment with antibiotics and the inhibitor HSAc-Phe-Leu was compared with that of the antibiotics alone using an experimental model of Pseudomonas keratitis in rabbit eyes. The inhibitor at a concentration of 10 mM was given, one drop at a time, every 15 min. for 1 hour after infection with the bacteria, and then hourly for additional 44 hours. The antibiotic (0.3% gentamicin sulfate) was applied every 2 hours, starting 16 hours after infection.

In assay [5] the test system is Pseudomonas aeruginosa. Briefly: Rabbit eyes infected with P. aeruginosa, topical treatment (Expt. A and B), clinical scores and corneal melting. Format: in vivo. Conditions: for Development of extensive corneal melting (%) / Development of extensive corneal melting, No. of eyes with melting/No. of eyes in group: extensive: 30% of corneal area affected; for Development of corneal melting (%) / Development of corneal melting, No. of eyes with melting/No. of eyes in group: rabbit eyes; for Clinical Scores: individual rabbit eyes, scoring of Table 3, maximum 10. On the procedure: Further experiments were carried out. The schedule of topical treatment is set out in Table 2. The criteria applied to the results are set out in Table 3. […]

T1 sequence (P14756 198-498): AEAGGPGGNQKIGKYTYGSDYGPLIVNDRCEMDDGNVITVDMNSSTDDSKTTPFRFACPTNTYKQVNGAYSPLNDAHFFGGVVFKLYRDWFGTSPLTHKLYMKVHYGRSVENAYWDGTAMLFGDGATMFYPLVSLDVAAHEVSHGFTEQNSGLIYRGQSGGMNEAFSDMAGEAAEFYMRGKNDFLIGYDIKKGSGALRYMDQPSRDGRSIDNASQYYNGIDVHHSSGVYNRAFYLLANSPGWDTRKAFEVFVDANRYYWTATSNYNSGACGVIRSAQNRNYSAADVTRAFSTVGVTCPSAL
Chain of Pseudomonas elastase (P14756 198-498): as above
Chain of elastase of P. aeruginosa (P14756 198-498): as above

With `O=C(O)CN(CCN(CC(=O)O)CC(=O)O)CC(=O)O` [EDTA], the “inhibition of the elastase” value in assay [1] was “inhibited”.
Consider `CC(C)C[C@H](NC(=O)CS)C(=O)N[C@H](Cc1ccccc1)C(=O)O` [HS-Ac-Leu-D-Phe], for which, at Pseudomonas elastase (25° C., pH 7.5, substrate furylacryloyl-Gly-Leu-Ala, read-out: Ki), the inhibition constant Ki is 34000 nM.
With `CC(C)C[C@H](NC(=O)CS)C(=O)N[C@@H](Cc1ccccc1)C(=O)O` [HS-Ac-Leu-Phe, 2-mercaptoacetyl-L-leucyl-L-phenylalanine], on Pseudomonas elastase, the affinity, expressed as Ki, was 1500 nM.
Turning to `CC(C)C[C@H](NC(=O)[C@H](Cc1ccccc1)NC(=O)CS)C(=O)O` [HS-Ac-Phe-Leu, mercaptoacetyl-L-phenylalanyl-L-leucine], on Pseudomonas elastase, affinity was put at a Ki of 200 nM. In addition, in assay [2], the “perforation of the cornea” value was “prevented”. In addition, the “damage caused, part of the cornea affected” value in assay [2] (after about 9 hours) is reported as at most 10%. In addition, the “time from injection of the enzyme to which the dissolution effect of the cornea is postponed” value in assay [2] (without inhibitor about an hour and a half) is reported as “about 9 hours”. In addition, the “dissolution of the cornea” value in assay [3] (topical drops before and after enzyme injection) was “no "dissolution" of the cornea takes place at all”. For the same molecule, the “appearance of the eye” value in assay [3] (topical drops, remains for many hours after cessation of treatment) is listed as “entirely normal”. For the same molecule, in the assay with Pseudomonas aeruginosa [4], the “severity of the damage caused to the eyes, versus antibiotic alone” value was “significantly lower”.
For the molecule `c1cnc2c(c1)ccc1cccnc12` [O-phenanthroline], the “inhibition of the elastase” value in assay [1] was “inhibited”.
On to gentamicin sulfate, for which the “Development of extensive corneal melting (%)” value in the assay with Pseudomonas aeruginosa [5] (28 h after infection) is 27%; in the assay on Pseudomonas aeruginosa [5] (48 h after infection) it was 60%. In addition, the entries for the “Development of extensive corneal melting, No. of eyes with melting/No. of eyes in group” value in the assay with Pseudomonas aeruginosa [5] (28 h after infection) and in the assay on Pseudomonas aeruginosa [5] (48 h after infection) were 4/15 and 9/15, respectively. The figures for the “Development of corneal melting (%)” value with Pseudomonas aeruginosa [5] (28 h after infection) and with Pseudomonas aeruginosa [5] (48 h after infection) were 73% and 93%, respectively. Moreover, the “Development of corneal melting, No. of eyes with melting/No. of eyes in group” value in the assay with Pseudomonas aeruginosa [5] (28 h after infection) is given as 11/15; in the assay on Pseudomonas aeruginosa [5] (48 h after infection), 14/15. Further, the “Clinical Scores” value with Pseudomonas aeruginosa [5] (28 hours after infection, Expt. A) is 7 and 4 and 3 and 6 and 1; with Pseudomonas aeruginosa [5] (28 hours after infection, Expt. B), 3 and 2 and 1 and 6; in the assay on Pseudomonas aeruginosa [5] (48 hours after infection, Expt. A) it was 7 and 10 and 6 and 4 and 3; in the assay with Pseudomonas aeruginosa [5] (48 hours after infection, Expt. B), 6 and 7 and 5 and 4.
